Experimental data as given in patent US20250340543A1, “GPR84 ANTAGONISTS AND USES THEREOF” (Liminal BioSciences Limited, priority 2021, published 2025).
pIC50: −log10 of the molar value.

Target: GPR84 (Homo sapiens (Human), UniProt Q9NQS5)
Assay: Gai biosensor BRET assay (GPR84-mediated activation of Gai, antagonist mode against agonist ZQ-16)
Format: cell-based
Conditions: for inhibition at 10 µM: compound tested at 10 μM (concentration code D); for inhibition at 25 µM: compound tested at 25 μM (concentration code G); for pIC50: HEK293 cells, 200 nmol/L GPR84 agonist ZQ-16, read-out: hGPR84 IC50; for inhibition at 12.5 µM: compound tested at 12.5 μM (concentration code E); for inhibition at 2 µM: compound tested at 2 μM (concentration code A); for inhibition at 1 µM: compound tested at 1 μM (concentration code A*)
From the text: Background—The following assays can be used for determination of GPR84 activation in living HEK293 cells. […] The Gai biosensor consists of a Rluc8-tagged Gαi2 subunit, a GFP10-tagged Gγ2 subunit, and an untagged Gβ1. […] Moreover, signaling functions of GPCRs are tightly regulated by endocytosis, the targeting of receptors to endosomes and their sorting to lysosomes or recycling to the plasma membrane. […] Agonist stimulation of GPR84—Rluc8 leads to trafficking of the receptor to EEs, and ensuing increase of the donor concentration relative to the rGFP-FYVE acceptor anchored in the same cellular compartment, and thus results in an increase in BRET signal.
Plasmids—The cDNA clones for human GPR84 receptor, human Gαi2, Gβ1, and Gγ2 were obtained from the cDNA Resource Center (www.cdna.org). GFP10 (F64L, S147P, S202F and H231L variant of Aequorea victoria Green Fluorescent Protein) gBlocks gene fragments (Integrated DNA Technologies, IA) and linker were inserted in frame at the N-terminus of human Gγ2. Rluc8 (A55T, C124A, S130A, K136R, A143M, M185V, M253L, and S287L variant of the Renilla renformis luciferase) gBlocks gene fragment was inserted with linkers in frame in between residues 91 and 92 of Gαi2 or at the C-terminus of GPR84. The FYVE domain from human endofin (residues Q739 to K806) attached in frame at the C terminus of a humanized Renilla GFP (rGFP), were synthesized as gBlocks gene fragments.
Bioluminescence Resonance Energy Transfer (BRET) Measurement—HEK293 cells were transfected with GPR84—Rluc8 and rGFP-FYVE for the EEs trafficking biosensor or with GPR84, Gαi2—Rluc8, GFP10-Gγ2, and Gβ1 for the Gai biosensor. The following day, transiently transfected cells were seeded in 96-well white clear bottom microplates coated with poly-D-lysine and left in culture for 24 hours. Cells were washed once with Tyrode's buffer (140 mmol/L NaCl, 1 mmol/L CaCl2, 2.7 mmol/L KCl, 0.49 mmol/L MgCl2, 0.37 mmol/L NaH2PO4, 5.6 mmol/L glucose, 12 mmol/L NaHCO3, and 25 mmol/L HEPES, pH 7.5) before performing assays in Tyrode's buffer. Test compounds were incubated with cells for 5 (Gai) or 15 (EEs) minutes at 37° C. before addition of 200 nmol/L of the GPR84 agonist ZQ-16 (2-(Hexylthio)-6-hydroxy-4(3H)-pyrimidinone) for 5 minutes at room temperature (Gai) or 30 minutes at 37° C. (EEs). The Rluc8 substrate coelenterazine 400A (Prolume, Lakeside, AZ) was added at a final concentration of […] and BRET readings were collected using an Infinite M1000 microplate reader (Tecan, Morrisville, NC). BRET^2 readings between Rluc8 and GFP10 or rGFP were collected by sequential integration of the signals detected in the 370 to 450 nm (Rluc8) and 510 to 540 nm (GFP10, rGFP) windows. The BRET signal was calculated as the ratio of light emitted by acceptor (GFP10, rGFP) over the light emitted by donor (Rluc8). The values were corrected to net BRET by subtracting the background BRET signal obtained in cells transfected with Rluc8 constructs alone. Ligand-promoted net BRET values were calculated by subtracting vehicle-induced net BRET from ligand-induced net BRET.

Sequence of GPR84 (Q9NQS5 whole entry): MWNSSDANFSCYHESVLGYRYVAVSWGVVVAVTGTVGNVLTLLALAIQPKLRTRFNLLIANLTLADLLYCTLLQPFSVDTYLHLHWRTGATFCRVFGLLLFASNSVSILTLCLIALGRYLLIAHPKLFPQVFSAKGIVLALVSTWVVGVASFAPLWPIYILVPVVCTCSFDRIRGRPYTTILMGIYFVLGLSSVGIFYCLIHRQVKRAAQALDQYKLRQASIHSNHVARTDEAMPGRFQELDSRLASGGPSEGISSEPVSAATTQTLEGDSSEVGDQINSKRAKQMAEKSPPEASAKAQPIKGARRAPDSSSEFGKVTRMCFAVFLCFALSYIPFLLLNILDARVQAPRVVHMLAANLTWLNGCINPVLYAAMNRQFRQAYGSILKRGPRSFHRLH

## Cc1cc(OCc2ncc(Cl)cn2)cc(=O)n1[C@H](C)c1ccc(C#CC2CC2)cc1 [Compound I-260]
  inhibition at 10 µM: > 75%

## Cc1cc(OCc2ncccc2F)cc(=O)n1C(C)c1ccc(C#CC2CC2)nc1 (stereo not shown) [Compound I-327]
  inhibition at 10 µM: 50 to 75%

## COc1nc(OCC2COCCO2)cc(-c2ccc(OCC(F)(F)F)cn2)n1 (stereo not shown) [Compound I-41]
  inhibition at 25 µM: < 25%

## Cc1cc(OCc2cncnc2)cc(=O)n1C(C)c1ccc(C#CC2CC2)c(F)c1 (stereo not shown) [Compound I-364]
  pIC50: > 5.30
  inhibition at 10 µM: > 75%

## COc1cc(OCC2COCCO2)nc(-c2ccc(OCC(F)(F)F)cc2C)c1C (stereo not shown) [Compound I-112]
  inhibition at 25 µM: < 25%

## COc1nc(OCC2COCCO2)cc(-c2ccc(C#CC3CC3)cc2)n1 (stereo not shown) [Compound I-29]
  inhibition at 25 µM: < 25%

## C(#CC1CC1)c1ccc(-c2nccc(OCC3CCCCO3)n2)cc1 (stereo not shown) [Compound I-127]
  inhibition at 25 µM: < 25%

## Cc1cc(OCC2COCCO2)cc(=O)n1C(C)c1ccc(C#CC2CC2)s1 (stereo not shown) [Compound I-220]
  inhibition at 10 µM: < 25%

## Cc1ccc(-c2ccc(-c3nc(OCC4COCCO4)cc(=O)n3C)cc2)cn1 (stereo not shown) [Compound I-47]
  inhibition at 25 µM: 25 to 50%

## Cc1ccc(-c2ccc(-c3cc(OCC4CCCCO4)ncn3)cc2)cn1 (stereo not shown) [Compound I-124]
  inhibition at 12.5 µM: < 25%

## Cc1cc(OCc2c(F)ccc[n+]2[O-])cc(=O)n1[C@H](C)c1ccc(C#CC2CC2)cc1 [Compound I-369]
  inhibition at 10 µM: > 75%

## Cc1cc(OCC2Oc3ccccc3O2)cc(=O)n1[C@H](C)c1ccc(C#CC2CC2)cc1 [Compound I-230]
  inhibition at 10 µM: < 25%

## O=c1cc(OCC2COCCO2)cc(-n2ccc(OCC(F)(F)F)cc2=O)[nH]1 (stereo not shown) [Compound I-5]
  inhibition at 25 µM: < 25%

## C(#CC1CC1)c1ccc(-c2cc(OCC3CCCCO3)cnn2)cc1 (stereo not shown) [Compound I-135]
  inhibition at 25 µM: < 25%

## COc1cc(OCC2COCCO2)cc(-c2ccc(-c3ccc(C)nc3)cc2C)n1 (stereo not shown) [Compound I-36]
  pIC50: > 5.30
  inhibition at 25 µM: 25 to 50%

## Cc1cc(OCc2cccnc2)cc(=O)n1[C@H](C)c1ccc(C#CC2CC2)cc1 [Compound I-272]
  pIC50: > 5.30
  inhibition at 2 µM: > 75%

## C(#CC1CC1)c1ccc(-c2cc(OCC3CCCCO3)ncn2)cc1 (stereo not shown) [Compound I-54]
  inhibition at 25 µM: < 25%

## Cc1cc(OCc2cnc(C3CC3)cn2)cc(=O)n1[C@H](C)c1ccc(C#CC2CC2)cc1 [Compound I-323]
  inhibition at 10 µM: > 75%

## Cc1cc(OCC2COc3ccccc3O2)cc(=O)n1C(C)c1ccc(C#CC2CC2)cc1 (stereo not shown) [Compound I-65]
  inhibition at 10 µM: < 25%

## COc1cc(OCC2COCCO2)cc(-c2c(C)cc(OCc3ccccn3)cc2C)n1 (stereo not shown) [Compound I-46]
  inhibition at 25 µM: 25 to 50%

## Cc1cc(OCc2cn(C)cn2)cc(=O)n1[C@H](C)c1ccc(C#CC2CC2)cc1 [Compound I-313]
  inhibition at 10 µM: > 75%

## COc1nc(OCC2COCCO2)cc(-c2ccc(OCC(F)(F)F)cc2)n1 (stereo not shown) [Compound I-110]
  inhibition at 25 µM: < 25%

## Cc1cc(OCc2ccccn2)ccc1-c1cc(OCC2COCCO2)cc(=O)[nH]1 (stereo not shown) [Compound I-71]
  inhibition at 25 µM: < 25%

## Cc1cc(OCc2cc(Cl)ccn2)cc(=O)n1[C@H](C)c1ccc(C#CC2CC2)cc1 [Compound I-306]
  inhibition at 10 µM: 25 to 50%

## COc1cc(NC(=O)C2COCCO2)cc(-c2ccc(C#CC3CC3)cc2)n1 (stereo not shown) [Compound I-98]
  inhibition at 25 µM: < 25%

## Cc1cc(OCc2ncco2)cc(=O)n1C(C)c1ccc(C#CC2CC2)c(F)c1 (stereo not shown) [Compound I-365]
  inhibition at 10 µM: > 75%

## FC(F)(F)COc1ccc(-c2cc(Cl)cc(OCC3COCCO3)c2)cc1 (stereo not shown) [Compound I-161]
  inhibition at 25 µM: < 25%

## Cc1cc(OCC2COCCO2)cc(=O)n1-c1ccc(C#CC2CC2)cc1 (stereo not shown) [Compound I-225]
  inhibition at 10 µM: 25 to 50%

## O=c1cc(OCC2COCCO2)cc(-c2ccc(C#CC3CC3)cc2)[nH]1 (stereo not shown) [Compound I-8]
  inhibition at 25 µM: < 25%

## Cn1c(-c2ccc(C#CC3CC3)cc2)cc(=O)n(C[C@H]2COCCO2)c1=O [Compound I-122]
  inhibition at 10 µM: < 25%

## Cc1ccc([C@@H](C)n2c(C)cc(OCc3ncccn3)cc2=O)cc1 [Compound I-299]
  inhibition at 10 µM: < 25%

## Cc1cc(OCc2ncccn2)cc(=O)n1[C@H](C)c1ccc(C#CC2CC2)c(F)c1 [Compound I-325]
  pIC50: > 5.30
  inhibition at 10 µM: > 75%

## Cc1cc(OCC2CCOCC2)cc(=O)n1[C@H](C)c1ccc(N2CC(C)(C)C2)cc1 (stereo in doubt) [Compound I-148]
  inhibition at 10 µM: 25 to 50%

## Cc1cc(OCc2ncccn2)cc(=O)n1[C@H](C)c1ccc(C2CC2)cc1 [Compound I-322]
  inhibition at 10 µM: < 25%

## COc1cc(NC(=O)C2CCCCO2)cc(-c2cccc(C#CC3CC3)c2)n1 (stereo not shown) [Compound I-84]
  inhibition at 25 µM: < 25%

## Cc1cc(OCC2COCCO2)cc(=O)n1[C@H](CO)c1ccc(C#CC2CC2)cc1 (stereo in doubt) [Compound I-147]
  inhibition at 10 µM: 25 to 50%

## CC(c1cc(C#CC2CC2)ccn1)n1ccc(OCc2ncccn2)cc1=O (stereo not shown) [Compound I-250]
  inhibition at 10 µM: 25 to 50%

## Cc1ccc(-c2ccc(Cc3cccc(OCC4COCCO4)c3)cc2)cn1 (stereo not shown) [Compound I-176]
  inhibition at 25 µM: < 25%

## Cc1cc([C@@H](C)n2c(C)cc(OCc3ncccn3)cc2=O)ccc1C#CC1CC1 [Compound I-373]
  inhibition at 10 µM: > 75%

## C(#CC1CC1)c1ccc(-c2cncc(OCC3CCCCO3)c2)cc1 (stereo not shown) [Compound I-25]
  pIC50: 5.00 to 5.30
  inhibition at 12.5 µM: 50 to 75%

## Cc1cc(OCc2cocn2)cc(=O)n1[C@H](C)c1ccc(C#CC2CC2)cc1 [Compound I-284]
  inhibition at 2 µM: > 75%

## Cc1cc(OCc2ncccn2)cc(=O)n1C(C)c1cc(F)c(C#CC2CC2)c(F)c1 (stereo not shown) [Compound I-362]
  inhibition at 10 µM: > 75%

## Cc1cc(OCC(F)(F)F)ccc1-c1cccc(OCC2COCCO2)n1 (stereo not shown) [Compound I-33]
  inhibition at 25 µM: 25 to 50%

## Cc1cc(OCc2ncccn2)cc(=O)n1[C@H](C)c1ccc(C#N)cc1 [Compound I-243]
  inhibition at 10 µM: < 25%

## Cc1cc(OCc2ncccc2Cl)cc(=O)n1[C@H](C)c1ccc(C#CC2CC2)cc1 [Compound I-256]
  pIC50: > 5.30
  inhibition at 2 µM: > 75%

## FC(F)(F)COc1cccc(-c2cccc(OCC3COCCO3)n2)c1 (stereo not shown) [Compound I-111]
  inhibition at 25 µM: < 25%

## Cc1cc(C#CC2CC2)ccc1-c1cncc(OCC2COCCO2)c1 (stereo not shown) [Compound I-43]
  inhibition at 10 µM: 25 to 50%

## Cc1cc(OCC2COCCO2)cc(=O)n1Cc1cccc(OCC(F)(F)F)c1 (stereo not shown) [Compound I-114]
  inhibition at 10 µM: < 25%

## Cc1cc(OCc2ccccc2Cl)cc(=O)n1[C@H](C)c1ccc(C#CC2CC2)cc1 [Compound I-297]
  inhibition at 10 µM: < 25%

## Cc1cc(OC[C@@H]2CCCOC2)cc(=O)n1[C@H](C)c1ccc(C#CC2CC2)cc1 [Compound I-232]
  pIC50: > 5.30
  inhibition at 10 µM: > 75%

## Cc1cc(OCC2COCCO2)cc(=O)n1Cc1ccc(C#CCNCc2ccccc2)cc1 (stereo not shown) [Compound I-123]
  inhibition at 10 µM: < 25%

## Cc1cc(OCC2COCCO2)cc(=O)n1C(C)c1cc(C#CC2CC2)cs1 (stereo not shown) [Compound I-221]
  inhibition at 10 µM: 25 to 50%

## Cc1cc(OCc2ncccn2)cc(=O)n1[C@@H](C)c1ccc(C#CC2CC2)c(F)c1 [Compound I-326]
  pIC50: 4.82 to 5.00
  inhibition at 1 µM: 25 to 50%

## O=C(NCC1CCCO1)N1Cc2ccc(C#CC3CC3)cc2C1 (stereo not shown) [Compound I-184]
  inhibition at 1 µM: < 25%

## Cc1cc(OC[C@@H]2COCCO2)cc(=O)n1[C@@H](C)c1ccc(C#CC2CC2)cc1 (stereo in doubt) [Compound I-89]
  inhibition at 10 µM: < 25%

## Cn1c(OCC2COCCO2)cc(-c2ccc(C#CC3CC3)cc2)nc1=O (stereo not shown) [Compound I-136]
  inhibition at 25 µM: < 25%

## Cc1cc(OCc2ccnn2C)cc(=O)n1[C@H](C)c1ccc(C#CC2CC2)cc1 [Compound I-351]
  pIC50: > 5.30
  inhibition at 10 µM: > 75%

## Cc1cc(OCC2COCCO2)cc(=O)n1Cc1cccc(N2CC(C)(C)C2)c1 (stereo not shown) [Compound I-146]
  inhibition at 10 µM: < 25%
